Measured values as given in PubChem BioAssay (NCI).
Where “and” joins values, the source holds several entries; their conditions need not be identical. Identical values can stand only once.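 Exposure lasted 48 hours, with cells grown in 96-well plates and compounds tested at five concentrations. Abbreviation: GI50, concentration required for 50% inhibition of growth. The concentration for full growth arrest is given as TGI.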

Tests used:
Assay in all cases: NCI-60 cell line screen, 48 h
[1] = system: CCRF-CEM leukemia
[2] = system: NCI-H23 lung
[3] = system: OVCAR-5 ovarian
[4] = system: OVCAR-8 ovarian
[5] = system: RXF 393 renal
[6] = system: SF-268 CNS
[7] = system: SF-295 CNS
[8] = system: SN12C renal
[9] = system: SR leukemia
[10] = system: U251 CNS

| Structure (SMILES) | TGI [1] | TGI [2] | TGI [3] | TGI [4] | TGI [5] | TGI [6] | TGI [7] | TGI [8] | TGI [9] | TGI [10] | GI50 [1] | GI50 [2] | GI50 [3] | GI50 [4] | GI50 [5] | GI50 [6] | GI50 [7] | GI50 [8] | GI50 [9] | GI50 [10] |
| --- | --- | --- | --- | --- | --- | --- | --- | --- | --- | --- | --- | --- | --- | --- | --- | --- | --- | --- | --- | --- |
| COc1ccc(Cc2cc(OC)c(OC)c(OC)c2)cc1 | 16.9 µM | 15.3 µM | > 100 µM | 27 µM | 3.38 µM | > 100 µM | > 29.4 µM | > 89.3 µM | 1.4 µM | 34.3 µM |  |  |  |  |  |  |  |  |  |  |
| CCOC(=O)C1=C(C)NC(C)=C(C(=O)OCCNC(=O)c2ccc(N=[N+]=[N-])cc2)C1c1ccccc1C(F)(F)F (centres undefined) | 21.5 µM | 21.5 µM | 21.5 µM | 21.5 µM | 21.5 µM | 21.5 µM | 21.5 µM | 21.5 µM | 21.5 µM | 21.5 µM |  |  |  |  |  |  |  |  |  |  |
| N#CCCN(C1=NN(C(=O)CC(=O)Nc2ccc(Cl)cc2)C(c2ccccc2)C1)c1ccc(Cl)cc1 (centres undefined) | > 100 µM | > 100 µM | > 100 µM | > 100 µM | > 100 µM | > 100 µM | > 100 µM | > 100 µM | > 100 µM | > 100 µM |  |  |  |  |  |  |  |  |  |  |
| C=C1C[C@@H](O)[C@@H](Br)C(C)(C)[C@]12CCC(C)(Br)C(Cl)C2 (some centres undefined) | > 50 µM and 14.4 µM | > 50 µM and 37.5 µM | 26.6 µM and 8.52 µM | > 50 µM and 50.1 µM | > 50 µM and 37.2 µM | > 50 µM and 35.8 µM | > 50 µM and 34.9 µM | > 50 µM and 31.3 µM | > 50 µM and 37.2 µM | > 50 µM and 31.5 µM | 1.05 µM | 18.7 µM | 1.23 µM | 21.7 µM | 18.5 µM | 19.1 µM | 17.9 µM | 16.5 µM | 18.9 µM | 17.7 µM |
| COc1cc(N2CCN(C(C)C)CC2)ccc1Nc1nc(Nc2ccc(F)cc2C(=O)NCC(O)CO)c2cc[nH]c2n1 (centres undefined) | > 25 µM | > 23.3 µM | > 25 µM | > 25 µM | > 25 µM | > 25 µM | > 25 µM | > 25 µM | > 14 µM | > 25 µM | 2.65 µM | 4.22 µM | 4.28 µM | 16.3 µM | 11.4 µM | 6.89 µM | 11.4 µM | 7.62 µM | 1.13 µM | 5.22 µM |
| O=C(CN1CCN(CCN2C(=O)c3cccc4cccc(c34)C2=O)CC1)Nc1ccc2ncsc2c1 | 53 µM | 27 µM | > 100 µM | 22.9 µM | > 100 µM | 25 µM | 20.7 µM | 19.9 µM | 41.2 µM | 17.2 µM | 5.4 µM | 7.08 µM | 10.5 µM | 3.8 µM | 6.32 µM | 6.07 µM | 4.9 µM | 5.5 µM | 1.38 µM | 4.39 µM |
| CC(=O)NNc1nc(C)c(C(/C=C/c2ccc(Cl)cc2)=N\N=C(N)N)s1 | > 100 µM | > 100 µM | > 100 µM | > 100 µM | > 100 µM | > 100 µM | > 100 µM | > 100 µM | > 100 µM | > 100 µM |  |  |  |  |  |  |  |  |  |  |
| CCSc1nc(NC(C)c2ccccc2)c2cnn(CO)c2n1 (centres undefined) | > 100 µM | > 100 µM | > 100 µM | > 100 µM | > 100 µM | > 100 µM | > 100 µM | > 100 µM | > 100 µM | > 100 µM | > 100 µM | 18.4 µM | > 100 µM | 99.3 µM | 91.5 µM | > 100 µM | 35.2 µM | > 100 µM | 79.4 µM | 74.8 µM |
| CC(C)n1nc(C#Cc2cccc(O)c2)c2c(N)ncnc21 | 50 µM and 13.3 µM | 6.75 µM and 5.4 µM | 16.4 µM and 8 µM | 30.1 µM and 16.1 µM | 4.2 µM and 1.5 µM | 6.71 µM and 6.05 µM | 12.2 µM and 3.58 µM | 5.09 µM and 4.76 µM | 23.4 µM and 11.4 µM | 50 µM and 12.8 µM | 1.65 µM and 1.15 µM | 1.23 µM and 0.992 µM | 1.79 µM and 1.62 µM | 1.99 µM and 2.41 µM | 1.15 µM and 0.481 µM | 1.37 µM and 1.09 µM | 3.16 µM and 1.17 µM | 0.894 µM and 0.532 µM | 1.17 µM and 0.573 µM | 2.83 µM and 2.95 µM |
| CC(=O)N(C)c1cc(NCc2ccccc2)ccc1OCc1ccccc1 | 45 µM | 57.1 µM | 38.3 µM | 32.7 µM | 28.6 µM | 30.4 µM | 29.6 µM | 33.1 µM | 32.8 µM | 32.9 µM |  |  |  |  |  |  |  |  |  |  |
| O=C(NCCCl)NCCN1c2nc3ccccc3cc2Sc2cc3ccccc3nc21 | 3.62 µM | > 45.6 µM | > 44.5 µM | 20.8 µM | 27.9 µM | > 41 µM | 3.75 µM | > 47.6 µM | > 23.3 µM | 12.3 µM | 0.3 µM | 1.43 µM | 4.24 µM | 3.03 µM | 6.45 µM | 3.63 µM | 0.569 µM | 3.04 µM |  | 1.93 µM |
| CCOC(=O)Nc1ccc2nc(N3CCCCCC3)sc2c1 | > 100 µM | > 100 µM | > 100 µM | > 63.4 µM | > 26.2 µM | > 100 µM | 11.4 µM | > 100 µM | > 100 µM | > 100 µM | 1.97 µM | 7.95 µM | 8.28 µM | 4.51 µM | 1.99 µM | 8.25 µM | 0.856 µM | 5.08 µM | 0.405 µM | 1.09 µM |
